Results on four molecules are retold here after patent US9447023B2, “Curcumin and tetrahydrocurcumin derivatives” (Research Foundation of the City University of New York, priority 2006, dated 2016).

One series has as its system Oligodendroglioma cells. Put plainly: Apoptosis of Oligodendroglioma cells (DAPI staining). To be noted: 50 micro molar. It counts as cell-based. On the procedure:
The small molecule curcumin analogs including curcumin dimers, curcumin polymers and curcumin modified polymers, typical examples shown in Schemes 1-6 of the present invention can be used for the treatment of cancer. […] Oligodendroglioma cells were treated with 50 micro molar concentration of curcumin and asymmetric curcumin dimer stained with DAPPI presented.
Very limited cell death is seen in human fibroblasts, which serve as a benign control cell line. The percentage of apoptosis is lower at higher concentrations (100 μM and more) as compared to that at 20 μM and 50 μM for all the compounds including curcumin because at higher concentration curcumin and analogs of the invention cause HOG cell necrosis. This alternate pathway of cell killing has been established via DNA laddering studies.

For series [1] the following is noted: unmodified curcumin, background statement; cited from earlier work.
The next series relates to amyloid plaques. The conditions noted are these: cited from earlier work.
For series [2] the following is noted: human subjects, doses as high as 8 g of curcumin per day; cited from earlier work.
Series [3] in a line: Molar extinction coefficient of curcumin analogs (UV-visible). The class given is physicochemical. To be noted: in M-1 cm-1 (unit assumed). From the text:
Each curcumin derivative is bioconjugated to create a biopolymer that can be used as an eco-friendly dye. For example, compounds 1b and 1d can be conveniently conjugated to the lysine residues of proteins, the azide and the alkyne derivatives can be attached to proteins via the ‘click’ bioconjugation reaction. Compounds 1c and 1e have the advantage that unlike most reactive groups which are used for bioconjugation, alkyne and azide groups are stable in aqueous media (Scheme 5). The absorbance and fluorescence properties of these dyes are similar to the parent molecule.
Reagent-grade solvents such as acetone and tetrahydrofuran were used without further purification. For High Performance Liquid Chromatography (HPLC), methylene chloride was used with Pure Solv™ solvent purification system. Curcumin was obtained from Acros-Organics. Copper acetate and sodium ascorbate were purchased from Sigma. Silica gel 60 F 254 plates for thin-layer chromatography (TLC) were purchased from Merck. Column chromatographic separations were carried out using silica gel (Fisher) with a particle size of 0.040-0.063 mm. Nuclear magnetic resonance (NMR) was recorded on Bruker Avance 600 (600 MHz) spectrometers. Mass spectra (ES-MS) were recorded on a LC/MS and Time Of Flight (TOF) mass spectrometer. U.V.-Visible spectra were recorded using a ChemStation Rev. A.10.01 from Agilent Technologies

Take “(2-(2-(2-(2-(2-(2-(2-(4-methylene)-1H-1,2,3-triazol-1-yl)ethoxy)ethoxy)ethoxy)ethoxy)ethoxy)ethoxy)ethylcarbamoyl butanoate curcumin dimer [Compound 7]”: in the series on Oligodendroglioma cells, the “apoptosis characterized by nuclear condensation (DAPI staining)” value is given as “Extensive apoptosis” and the “induction of apoptosis relative to parent compound curcumin” value is “superior in inducing apoptosis”.
Turning to `COc1cc(/C=C\C(=O)CC(=O)/C=C\c2ccc(O)c(OC)c2)ccc1O` [Curcumin, (1Z,6Z)-1,7-bis(4-hydroxy-3-methoxyphenyl)hepta-1,6-diene 3,5-dione], the “water and plasma solubility” value in series [1] is “poor water and plasma solubility”. In the series with amyloid plaques (fed to mice with advanced amyloid accumulation), the “amyloid levels and plaque burden” value is “reduced amyloid levels and plaque burden”. Moreover, the “blood-brain barrier crossing and plaque binding” value with amyloid plaques (injected, transgenic mouse model) was “crosses the blood-brain barrier and binds amyloid plaques”. Further, the “average peak serum concentration” value in series [2] is 652.5 ng/mL. Besides, the “Molar Extinction Coeffecient” value in series [3] is 50,000.
In the case of `COc1cc(/C=C\C(=O)CC(=O)/C=C\c2ccc(OC(=O)CCCC(=O)NCCOCCOCCOCCOCCOCCOCCN=[N+]=[N-])c(OC)c2)ccc1O` [Compound 4, Mono-2-(2-(2-(2-(2-(2-(2-azidoethoxy)ethoxy)ethoxy)ethoxy)ethoxy)ethoxy)ethylcarbamoyl butanoate-Curcumin], in series [3], the “Molar Extinction Coeffecient” value is listed as 26764.
On to `C#CCOc1ccc(C=CC(=O)CC(=O)C=Cc2ccc(O)c(OC)c2)cc1OC` [Compound 5, Mono-Propargyl Curcumin], for which, in series [3], the “Molar Extinction Coeffecient” value is listed as 29510.
